According to the NIST ThermoML archive (doi:10.1016/j.jct.2009.07.022):
Values joined by “and” are separate entries in the source; they are usually repeats but may differ in a detail not shown here. Equal values may be shown once.

Key:
[1] = Crystal, Calculated from knudsen effusion weight loss
[2] = molar enthalpy of transition or fusion; details: 298.15 K; Crystal; Clausius-Clapeyron Eq with Heat Capacity

c1ccc(-c2cccc(-c3ccccc3)c2-c2ccccc2)cc1 [1,2,3-triphenylbenzene]
[1]
Details | vapor or sublimation pressure
373.15 K | 0.0001 kPa and 9.85e-05 kPa
375.03 K | 0.000124 kPa and 0.00012 kPa
377.27 K | 0.00016 kPa and 0.000158 kPa
379.15 K | 0.0002 kPa and 0.000199 kPa and 0.000195 kPa
381.02 K | 0.000244 kPa and 0.000247 kPa and 0.000237 kPa
383.27 K | 0.000316 kPa and 0.000305 kPa and 0.000301 kPa
385.27 K | 0.000384 kPa and 0.000369 kPa and 0.000365 kPa
387.12 K | 0.000458 kPa and 0.00046 kPa
389.05 K | 0.000548 kPa and 0.000555 kPa and 0.000543 kPa
391.28 K | 0.000733 kPa and 0.00073 kPa and 0.000715 kPa
393.1 K | 0.000871 kPa and 0.000865 kPa and 0.000872 kPa
394.98 K | 0.001033 kPa and 0.001062 kPa and 0.001027 kPa

Details | molar enthalpy of transition or fusion [kcal/mol]
[2] | 32.1
